Assay results taken from PubChem BioAssay (NCI).
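48-hour exposure; five concentrations; linearly interpolated endpoints. At the TGI there is no net growth.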

Legend:
Experiment in all cases: inhibition of tumour cell growth, NCI panel, 48 h
[1] = system: MCF7 breast
[2] = system: PC-3 prostate
[3] = system: RPMI-8226 leukemia
[4] = system: SK-MEL-28 melanoma
[5] = system: A498 renal
[6] = system: MDA-MB-435
[7] = system: SF-295 CNS
[8] = system: SN12C renal
[9] = system: NCI/ADR-RES ovarian
[10] = system: HL-60(TB) leukemia
[11] = system: IGROV1 ovarian

Row | SMILES | TGI [1] | TGI [2] | TGI [3] | TGI [4] | TGI [5] | TGI [6] | TGI [7] | TGI [8] | TGI [9] | TGI [10] | TGI [11]
1 | COC(=O)[C@H](Cc1ccccc1)NC(=O)c1ccc(CNC(=O)/C=C/c2csc(-c3ccccc3)n2)cc1 | 32 µM | > 58.2 µM | > 100 µM | 10.9 µM | 34.5 µM | > 36.7 µM | 25.8 µM | 46.2 µM | > 91.7 µM | > 100 µM | > 23.2 µM
2 | CC(C)(C)OC(=O)N(CCCCNC(=O)C(F)(F)F)CCCNC(=O)C(F)(F)F | > 100 µM | > 100 µM | > 100 µM | > 100 µM | > 100 µM | > 100 µM | > 100 µM | > 100 µM | > 100 µM | > 100 µM | > 100 µM
3 | O=C(Nn1c(-c2ccccc2)nc2ccccc2c1=O)c1ccc(Cl)cc1 | > 100 µM | > 100 µM | > 100 µM | > 100 µM | > 100 µM | > 100 µM | > 100 µM | > 100 µM | > 100 µM | > 100 µM | > 100 µM
4 | S=C1Cc2c(-c3ccccc3)cc(-c3cccc(Cl)c3)nc2-c2ccccc2N1 | > 58.1 µM | > 96.1 µM | 56.2 µM | 51.8 µM | 10.4 µM | > 60.9 µM | 17.2 µM | 16.7 µM | 8.32 µM | 54.9 µM | 4.56 µM
5 | Cc1nc2sc3cccc(Cl)c3n2c(=O)c1N=Nc1ccc(Cl)cc1 | > 100 µM | > 100 µM | > 100 µM | > 100 µM | 67.6 µM | > 100 µM | > 100 µM | > 100 µM | > 100 µM | > 100 µM | > 100 µM
